A compilation of properties of binary mixtures (doi:10.1016/j.jct.2016.09.024)

Assay: xn = mol fraction of the nth substance listed
Conditions: 100 kPa

CCCC[N+](C)(C)C.O=S(=O)([N-]S(=O)(=O)C(F)(F)F)C(F)(F)F + CCO
speed of sound [m/s]
Conditions	293.15 K	298.15 K	303.15 K	308.15 K
x1 = 0.01	1160.4	–	1126.8	1110.1
x2 = 0	1239.5	1228.9	1218.3	1208.1
x2 = 0.0605	1237.5	1226.8	1216.1	1205.9
x2 = 0.101	1235.4	1224.6	1214	–
x2 = 0.1991	–	1220.2	1209.5	1199
x2 = 0.3	1225.3	1214.6	–	1193.1
x2 = 0.4096	1218.1	1206.9	1195.8	1185
x2 = 0.4998	1210.5	1199.2	1187.9	–
x2 = 0.5996	1200.8	1189.1	–	1166.4
x2 = 0.6504	1195.1	1183.1	–	1159.6
x2 = 0.7501	–	1169.2	1156.6	1144.4
x2 = 0.8514	1166.7	1152.8	–	1126.2
x2 = 0.88	1163.4	–	1134.6	1117
x2 = 0.92	1158.1	1143.6	1129.8	1114.5
x2 = 0.93	1158	1142.8	1128	1113.2
x2 = 0.94	1157.5	1142.1	1127	1112.2
x2 = 0.9609	1157.2	1141.7	1126	1110.5
x2 = 0.97	–	1142.1	–	1110.4
x2 = 0.98	–	1142.2	1125.9	1109.9

CCO + CCCC[N+](C)(C)C.O=S(=O)([N-]S(=O)(=O)C(F)(F)F)C(F)(F)F
x1 = 1
Conditions	speed of sound [m/s]
293.15 K	1160.4
308.15 K	1108.9

C[N+](C)(C)CCO.O=S(=O)([N-]S(=O)(=O)C(F)(F)F)C(F)(F)F + CCO
speed of sound [m/s]
Conditions	293.15 K	298.15 K	303.15 K	308.15 K
x2 = 0.7051	1221.8	1207.6	1195.3	1183.5
x2 = 0.801	–	1183.2	1170	1157.2
x2 = 0.9002	1172.1	1156.6	1142.5	1128.2
x2 = 0.9601	1162.4	1145.9	1130.3	1115

CCCC[N+](C)(CCCC)CCCC.O=S(=O)([N-]S(=O)(=O)C(F)(F)F)C(F)(F)F + CCO
speed of sound [m/s]
Conditions	293.15 K	298.15 K	303.15 K	308.15 K
x1 = 0.0149	–	1146.8	1130.4	1114.1
x2 = 0	1291.7	1276	1261.1	–
x2 = 0.0636	–	1271.9	1257.5	1244.1
x2 = 0.0711	1285.8	1272.2	–	1244.1
x2 = 0.1235	–	1268.1	1254.2	–
x2 = 0.2012	1277.4	1263.2	1249.4	1236.2
x2 = 0.3995	1262.3	–	1235.2	1221.9
x2 = 0.6009	1241.4	1227.8	1214.4	1200.8
x2 = 0.7187	1224.1	1210.4	1196.3	1182.7
x2 = 0.8118	1205.7	1192	–	1163.3
x2 = 0.8605	1194.3	–	–	1151.2
x2 = 0.9076	1181.8	1166.7	1151.6	1136.7
x2 = 0.93	1175.6	1160.2	–	1129.9
x2 = 0.95	1170.7	–	–	1123.5
x2 = 0.96	–	1152.3	–	1120.9
x2 = 0.9702	1165.7	–	1133.6	–

CCO + CCCC[N+](C)(CCCC)CCCC.O=S(=O)([N-]S(=O)(=O)C(F)(F)F)C(F)(F)F
x1 = 1
Conditions	speed of sound [m/s]
293.15 K	1160.4
298.15 K	1143.3
303.15 K	1126.1

CCO + C[N+](C)(C)CCO.O=S(=O)([N-]S(=O)(=O)C(F)(F)F)C(F)(F)F
x1 = 1
Conditions	speed of sound [m/s]
303.15 K	1126.1
308.15 K	1108.9
